Measurements published in ChEMBL document CHEMBL6071160, “Identification of a novel 10-hydroxyevodiamine prodrug as a potent topoisomerase inhibitor with improved aqueous solubility for treatment of hepatocellular carcinoma” (Eur J Med Chem, 2024).
Activity calls are given as the source filed them. No cut-off for these calls is given here.

Assays:
Huh-7 [1] = test: Inhibition of cell migration in human Huh-7 cells at 10 nM measured for 24 hrs by scratch wound healing assay; type: functional, cell-based
[2] = Toxicity in BALB/c nude mouse subcutaneously injected with human Huh-7 cells assessed as change in body weight at 40 mg/kg, ip administered once daily measured after 14 days; type: organism-based; settings: in vivo, 336 h, time 14 day
[3] = Toxicity in BALB/c nude mouse subcutaneously injected with human Huh-7 cells assessed as animal death at 10 to 20 mg/kg, ip administered once daily measured after 14 days; type: organism-based; settings: in vivo, 336 h, dose 10-20 mg/kg, time 14 day
[4] = Antiproliferative activity against human Doxorubicin-resistant SMMC-7721 cell assessed as inhibition of cell proliferation incubated for 72 hrs by MTT assay; type: functional, cell-based; settings: SMMC-7721, 72 h
[5] = Chemical stability of compound at pH 7.4 assessed as residual rate measured after 2 days; type: physicochemical; settings: buffer, time 2 day, read-out: Stability
[6] = biological target: T1, DNA topoisomerase 1 (Homo sapiens) (UniProt P11387); test: Inhibition of DNA topoisomerase 1 (unknown origin) assessed as relaxation of supercoiled plasmid pBR322 DNA at 25 to 100 uM incubated for 15 mins measured after 30 mins addition of ethidium bromide by agarose gel electrophoresis; settings: dose 25-100 µM, time 45.0 min
T1 sequence (whole entry): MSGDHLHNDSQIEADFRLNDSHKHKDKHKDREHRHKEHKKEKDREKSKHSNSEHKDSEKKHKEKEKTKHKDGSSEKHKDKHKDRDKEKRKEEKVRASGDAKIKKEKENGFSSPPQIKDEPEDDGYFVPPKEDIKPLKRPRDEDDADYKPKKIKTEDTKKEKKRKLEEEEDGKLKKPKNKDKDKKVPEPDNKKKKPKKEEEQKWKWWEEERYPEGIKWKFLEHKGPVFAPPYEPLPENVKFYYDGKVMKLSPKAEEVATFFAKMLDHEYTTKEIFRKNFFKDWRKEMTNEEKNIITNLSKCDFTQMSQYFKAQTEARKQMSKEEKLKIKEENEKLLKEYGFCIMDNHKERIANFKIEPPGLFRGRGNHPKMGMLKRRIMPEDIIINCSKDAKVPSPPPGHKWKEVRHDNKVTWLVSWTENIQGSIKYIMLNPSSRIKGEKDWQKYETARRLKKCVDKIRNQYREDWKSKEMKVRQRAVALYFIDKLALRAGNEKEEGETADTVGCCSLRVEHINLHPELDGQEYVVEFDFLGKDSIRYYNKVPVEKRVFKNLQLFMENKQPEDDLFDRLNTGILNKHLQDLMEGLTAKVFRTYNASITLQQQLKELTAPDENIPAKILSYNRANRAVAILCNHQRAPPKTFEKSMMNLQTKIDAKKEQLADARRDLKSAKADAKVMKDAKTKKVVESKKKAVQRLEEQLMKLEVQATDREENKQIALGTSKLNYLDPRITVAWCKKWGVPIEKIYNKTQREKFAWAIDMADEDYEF

Huh-7 [7] = test: Inhibition of cell migration in human Huh-7 cells at 20 nM measured for 24 hrs by scratch wound healing assay; type: functional, cell-based
[8] = Prodrug conversion in rat plasma assessed as half life by measuring parent 10-hydroxyevodiamine derivative release by HPLC analysis; type: ADME, cell-free
SK-HEP1 [9] = test: Induction of cell cycle arrest in human SK-HEP1 cells assessed as accumulation of cells at S phase 80 nM measured after 24 hrs by flow cytometric assay (reference value: 30.04%); type: functional
SK-HEP1 [10] = test: Induction of apoptosis in human SK-HEP1 cells assessed as viable cells at 40 nM measured after 24 hrs by Annexin-V-FITC/PI analysis (reference value: 97.20%); type: functional; settings: read-out: Activity
Huh-7 [11] = test: Induction of cell cycle arrest in human Huh-7 cells assessed as accumulation of cells at S phase 40 nM measured after 24 hrs by flow cytometric assay (reference value: 23.33%); type: functional
Huh-7 [12] = test: In vivo antitumor activity against human Huh-7 cells subcutaneously injected into BALB/C nude mouse assessed as tumor growth inhibition at 40 mg/kg, ip administered once other day measured after 14 days; type: functional; settings: Huh-7, 336 h, time 14 day, read-out: TGI
SK-HEP1 [13] = test: Induction of apoptosis in human SK-HEP1 cells assessed as necrotic cells at 20 nM measured after 24 hrs by Annexin-V-FITC/PI analysis (reference value: 0.70%); type: functional
Huh-7 [14] = test: Induction of apoptosis in human Huh-7 cells assessed as ROS generation by measuring DCFH2-DA stained cells at 80 nM measured after 24 hrs […] (reference value: 0.45%); type: functional
Huh-7 [15] = test: Induction of cell cycle arrest in human Huh-7 cells assessed as accumulation of cells at S phase 20 nM measured after 24 hrs by flow cytometric assay (reference value: 23.33%); type: functional
SK-HEP1 [16] = test: Induction of cell cycle arrest in human SK-HEP1 cells assessed as accumulation of cells at S phase 20 nM measured after 24 hrs by flow cytometric assay (reference value: 30.04%); type: functional
[17] = Toxicity in BALB/c nude mouse subcutaneously injected with human Huh-7 cells assessed as change in body weight at 10 mg/kg, ip administered once daily measured after 14 days; type: organism-based; settings: in vivo, 336 h, time 14 day
SK-HEP1 [18] = test: Induction of apoptosis in human SK-HEP1 cells assessed as ROS generation by measuring DCFH2-DA stained cells at 20 nM measured after 24 hrs […] (reference value: 0.14%); type: functional
Huh-7 [19] = test: In vivo antitumor activity against human Huh-7 cells subcutaneously injected into BALB/C nude mouse assessed as tumor growth inhibition at 10 mg/kg, ip administered once daily measured after 14 days; type: functional; settings: Huh-7, 336 h, time 14 day, read-out: TGI
Huh-7 [20] = test: Induction of apoptosis in human Huh-7 cells assessed as necrotic cells at 20 nM measured after 24 hrs by Annexin-V-FITC/PI analysis (reference value: 0.27%); type: functional
SK-HEP1 [21] = test: Induction of cell cycle arrest in human SK-HEP1 cells assessed as accumulation of cells at G2 phase 20 nM measured after 24 hrs by flow cytometric assay (reference value: 22.41%); type: functional
SK-HEP1 [22] = test: Inhibition of cell invasion in human SK-HEP1 cells assessed as decrease in number of cells migration into lower compartment at 10 nM measured after 24 hrs by transwell assay; type: functional, cell-based
Huh-7 [23] = test: Induction of apoptosis in human Huh-7 cells assessed as early apoptotic cells at 20 nM measured after 24 hrs by Annexin-V-FITC/PI analysis (reference value: 1.04%); type: functional
SK-HEP1 [24] = test: Induction of apoptosis in human SK-HEP1 cells assessed as early apoptotic cells at 80 nM measured after 24 hrs by Annexin-V-FITC/PI analysis (reference value: 1.45%); type: functional
SK-HEP1 [25] = test: Induction of apoptosis in human SK-HEP1 cells assessed as ROS generation by measuring DCFH2-DA stained cells at 40 nM measured after 24 hrs […] (reference value: 0.14%); type: functional
SK-HEP1 [26] = test: Induction of apoptosis in human SK-HEP1 cells assessed as loss of mitochondrial membrane potential by measuring JC-1 stained cells at 20 nM measured after 24 hrs by JC-1 staining based flow cytometry (reference value: 0.49%); type: functional

C[N+](C)(C)CCC(=O)Oc1ccc2[nH]c3c(c2c1)CCN1C(=O)c2cc(F)cc(F)c2N(c2cccc(F)c2)C31.[I-] (stereo unspecified)
inhibition (Huh-7 [1]): Active | Activity [2]: Toxic | Activity [3]: Non-Toxic | IC50 [4]: 0.11 µM | remaining at 48 h [5]: 43.9% | inhibition [6]: Active | inhibition (Huh-7 [7]): Active | t1/2 [8]: 30 min | Activity (SK-HEP1 [9]): 18.41% | viability at 0.04 µM (SK-HEP1 [10]): 93.1% | Activity (Huh-7 [11]): 21.3% | inhibition in vivo at 40 mg/kg (Huh-7 [12]): 51.1% | Activity (SK-HEP1 [13]): 0.47% | Activity (Huh-7 [14]): 17.92% | Activity (Huh-7 [15]): 27.35% | Activity (SK-HEP1 [16]): 28.78% | Activity [17]: Non-Toxic | Activity (SK-HEP1 [18]): 0.47% | inhibition in vivo at 10 mg/kg (Huh-7 [19]): 83.3% | Activity (Huh-7 [20]): 0.11% | Activity (SK-HEP1 [21]): 23.61% | inhibition (SK-HEP1 [22]): Active | Activity (Huh-7 [23]): 1.31% | Activity (SK-HEP1 [24]): 22.57% | Activity (SK-HEP1 [25]): 13.95% | Activity (SK-HEP1 [26]): 0.78%
